Molecules are shown by their SMILES.

In this assay the target is T1, human GLP-1 receptor (Homo sapiens, UniProt P43220).
T1 construct: expressed in transfected cells
T1 sequence (P43220 24-463): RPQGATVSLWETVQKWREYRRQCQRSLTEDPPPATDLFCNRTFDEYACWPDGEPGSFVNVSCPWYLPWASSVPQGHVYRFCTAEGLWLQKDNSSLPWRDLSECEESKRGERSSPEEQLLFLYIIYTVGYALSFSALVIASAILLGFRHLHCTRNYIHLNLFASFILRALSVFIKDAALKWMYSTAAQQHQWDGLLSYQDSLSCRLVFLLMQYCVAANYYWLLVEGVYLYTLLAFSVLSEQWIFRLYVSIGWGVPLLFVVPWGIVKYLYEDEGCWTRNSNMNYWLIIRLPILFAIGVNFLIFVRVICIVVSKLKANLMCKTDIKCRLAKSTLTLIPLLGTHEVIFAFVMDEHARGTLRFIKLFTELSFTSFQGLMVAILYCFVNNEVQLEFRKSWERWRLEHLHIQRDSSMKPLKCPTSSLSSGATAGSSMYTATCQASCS
Briefly: GLP-1R cAMP Assay. Particulars: cAMP accumulation in CHO cells stably overexpressing the human GLP-1 receptor; 30 min treatment; HitHunter cAMP kit; read-out: EC50. In kind it is cell-based. The method in brief: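 Luminescent enzyme-complementation detection of cAMP, read after cell lysis and overnight incubation, with dose-response curve fitting. Stimulation lasted 30 min, using 20-point triplicate dosing on CHO cells (10,000 per well) stably overexpressing human GLP-1R.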
`N#Cc1ccc(OCc2cc(OC3CCN(Cc4nc5ccc(C(=O)O)cc5n4C[C@@H]4CCO4)CC3)ccn2)c(F)c1` [Compound 277, 2-{[4-({2-[(4-cyano-2-fluorophenoxy)methyl]pyridin-4-yl}oxy)piperidin-1-yl]methyl}-1-{[(2S)-oxetan-2-yl]methyl}-1H-1,3-benzodiazole-6-carboxylic acid]: the EC50 is under 50 nM. Consider `CCn1cncc1Cn1c(CN2CC[C@@H](Cc3cnc(COc4ccc(Cl)cc4Cl)o3)C[C@@H]2C)nc2ccc(C(=O)O)cc21` [Compound 278, 2-{[(2S,4R)-4-({2-[(2,4-dichlorophenoxy)methyl]-1,3-oxazol-5-yl}methyl)-2-methylpiperidin-1-yl]methyl}-1-[(1-ethyl-1H-imidazol-5-yl)methyl]-1H-1,3-benzodiazole-6-carboxylic acid], for which the EC50 was under 50 nM.

Consider `CCn1cncc1Cn1c(CN2CC[C@H](Cc3cnc(COc4ccc(Cl)cc4Cl)o3)C[C@@H]2C)nc2ccc(C(=O)O)cc21` [Compound 279, 2-{[(2S,4S)-4-({2-[(2,4-dichlorophenoxy)methyl]-1,3-oxazol-5-yl}methyl)-2-methylpiperidin-1-yl]methyl}-1-[(1-ethyl-1H-imidazol-5-yl)methyl]-1H-1,3-benzodiazole-6-carboxylic acid], for which the EC50 was under 50 nM. Turning to `O=C(O)c1ccc2nc(CN3CCC(Oc4ccnc(COc5ccc(Cl)cc5Cl)c4)CC3)n(CC3CNC3)c2c1` [Compound 280, 1-[(azetidin-3-yl)methyl]-2-{[4-({2-[(2,4-dichlorophenoxy)methyl]pyridin-4-yl}oxy)piperidin-1-yl]methyl}-1H-1,3-benzodiazole-6-carboxylic acid], the EC50 was under 50 nM. As for `C[C@H]1C[C@@H](Oc2ccnc(COc3ccc(Cl)cc3Cl)c2)CCN1Cc1nc2ccc(C(=O)O)cc2n1C[C@@H]1CCO1` [Compound 283, 2-{[(2S,4S)-4-({2-[(2,4-dichlorophenoxy)methyl]pyridin-4-yl}oxy)-2-methylpiperidin-1-yl]methyl}-1-{[(2S)-oxetan-2-yl]methyl}-1H-1,3-benzodiazole-6-carboxylic acid], the EC50 was under 50 nM.

As to `O=C(O)c1ccc2nc(CN3CCC(Oc4ccccc4COc4ccc(Cl)cc4Cl)CC3)n(C[C@@H]3CCO3)c2c1` [Compound 284, 2-[(4-{2-[(2,4-dichlorophenoxy)methyl]phenoxy}piperidin-1-yl)methyl]-1-{[(2S)-oxetan-2-yl]methyl}-1H-1,3-benzodiazole-6-carboxylic acid], the EC50 is over 500 nM. To `O=C(O)c1ccc2nc(CN3CCC(Oc4cccnc4COc4ccc(Cl)cc4Cl)CC3)n(C[C@@H]3CCO3)c2c1` [Compound 286, 2-{[4-({2-[(2,4-dichlorophenoxy)methyl]pyridin-3-yl}oxy)piperidin-1-yl]methyl}-1-{[(2S)-oxetan-2-yl]methyl}-1H-1,3-benzodiazole-6-carboxylic acid] belongs over 500 nM. Then `CCn1cncc1Cn1c(CN2CCC(Oc3ccnc(COc4ccc(Cl)cc4CO)c3)CC2)nc2ccc(C(=O)O)cc21` [Compound 287, 2-({4-[(2-{[4-chloro-2-(hydroxymethyl)phenoxy]methyl}pyridin-4-yl)oxy]piperidin-1-yl}methyl)-1-[(1-ethyl-1H-imidazol-5-yl)methyl]-1H-1,3-benzodiazole-6-carboxylic acid], with under 50 nM.

For `O=C(O)c1ccc2nc(CN3CCC(Oc4cccc(COc5ncc(Cl)cc5F)c4)CC3)n(C[C@@H]3CCO3)c2c1` [Compound 288, 2-{[4-(3-{[(5-chloro-3-fluoropyridin-2-yl)oxy]methyl}phenoxy)piperidin-1-yl]methyl}-1-{[(2S)-oxetan-2-yl]methyl}-1H-1,3-benzodiazole-6-carboxylic acid], the EC50 is over 500 nM. Then `C[C@H]1C[C@H](Oc2cccc(COc3ccc(Cl)cc3F)n2)CCN1Cc1nc2ccc(C(=O)O)cc2n1C[C@@H]1CCO1` [Compound 290, 2-{[(2S,4R)-4-({6-[(4-chloro-2-fluorophenoxy)methyl]pyridin-2-yl}oxy)-2-methylpiperidin-1-yl]methyl}-1-{[(2S)-oxetan-2-yl]methyl}-1H-1,3-benzodiazole-6-carboxylic acid], with under 50 nM; and `C[C@H]1C[C@@H](Oc2cccc(COc3ccc(Cl)cc3F)n2)CCN1Cc1nc2ccc(C(=O)O)cc2n1C[C@@H]1CCO1` [Compound 291, 2-{[(2S,4S)-4-({6-[(4-chloro-2-fluorophenoxy)methyl]pyridin-2-yl}oxy)-2-methylpiperidin-1-yl]methyl}-1-{[(2S)-oxetan-2-yl]methyl}-1H-1,3-benzodiazole-6-carboxylic acid], with under 50 nM; and `O=C(O)c1ccc2nc(CN3CCC(Oc4ccnc(COc5ccc(Cl)cc5CO)c4)CC3)n(CC3CCO3)c2c1` (stereo not shown) [Compound 292, 2-({4-[(2-{[4-chloro-2-(hydroxymethyl)phenoxy]methyl}pyridin-4-yl)oxy]piperidin-1-yl}methyl)-1-[(oxetan-2-yl)methyl]-1H-1,3-benzodiazole-6-carboxylic acid], with under 50 nM.

Consider `CCn1cncc1Cn1c(CN2CCC(Oc3cccc(COc4ncc(Cl)cc4F)c3)CC2)nc2ccc(C(=O)O)cc21` [Compound 294], for which the EC50 is 50 to 500 nM. Take `C[C@H]1C[C@H](Oc2ccnc(COc3ccc(Cl)cc3Cl)c2)CCN1Cc1nc2ccc(C(=O)O)cc2n1C[C@@H]1CCO1` [Compound 295, 2-{[(2S,4R)-4-({2-[(2,4-dichlorophenoxy)methyl]pyridin-4-yl}oxy)-2-methylpiperidin-1-yl]methyl}-1-{[(2S)-oxetan-2-yl]methyl}-1H-1,3-benzodiazole-6-carboxylic acid]: the EC50 is under 50 nM. Then `O=C(O)c1ccc2nc(CN3CCC(Oc4ccnc(COc5ccc(Cl)cc5F)n4)CC3)n(C[C@@H]3CCO3)c2c1` [Compound 296, 2-{[4-({2-[(4-chloro-2-fluorophenoxy)methyl]pyrimidin-4-yl}oxy)piperidin-1-yl]methyl}-1-{[(2S)-oxetan-2-yl]methyl}-1H-1,3-benzodiazole-6-carboxylic acid], with under 50 nM; and `O=C(O)c1ccc2nc(CN3CCC(Oc4cccc(COc5ccc(C(F)F)cc5F)c4)CC3)n(C[C@@H]3CCO3)c2c1` [Compound 301], with under 50 nM. Turning to `O=C(O)c1cc(F)c2nc(CN3CCC(Oc4ccnc(COc5ccc(C(F)F)cc5F)c4)CC3)n(C[C@@H]3CCO3)c2c1` [Compound 302], the EC50 is under 50 nM. On to `O=C(O)c1cc(F)c2nc(CN3CCC(Oc4cccc(COc5ccc(C(F)F)cc5F)c4)CC3)n(CC3(CF)CC3)c2c1` [Compound 303], for which the EC50 is under 50 nM.

For `O=C(O)c1cc(F)c2nc(CN3CCC(Oc4ccnc(COc5ccc(Cl)cc5Cl)n4)CC3)n(C[C@@H]3CCO3)c2c1` [Compound 305], the EC50 was under 50 nM.

For the compound `N#Cc1cc(F)ccc1OCc1nccc(OC2CCN(Cc3nc4ccc(C(=O)O)cc4n3C[C@@H]3CCO3)CC2)n1` [Compound 306], the EC50 is under 50 nM.

For `N#Cc1cc(F)ccc1OCc1nccc(OC2CCN(Cc3nc4c(F)cc(C(=O)O)cc4n3C[C@@H]3CCO3)CC2)n1` [Compound 307], the EC50 is under 50 nM.

For `O=C(O)c1ccc2nc(CN3CCC(Oc4ccnc(COc5ncc(Cl)cc5F)c4)CC3)n(C[C@@H]3CCO3)c2c1` [Compound 308], the EC50 was under 50 nM.

For `N#Cc1ccc(OCc2cccc(OC3CCN(Cc4nc5c(F)cc(C(=O)O)cc5n4C[C@@H]4CCO4)CC3)c2)c(F)c1` [Compound 309], the EC50 was under 50 nM.

As to `O=C(O)c1cc(F)c2nc(CN3CCC(Oc4cccc(COc5ccc(C(F)F)cc5F)c4)CC3)n(C[C@@H]3CCO3)c2c1` [Compound 310], the EC50 was under 50 nM. As for `O=C(O)c1ccc2nc(CN3CCC(Oc4ccnc(COc5ccc(C(F)F)cc5F)n4)CC3)n(C[C@@H]3CCO3)c2c1` [Compound 311], the EC50 was under 50 nM. Then `O=C(O)c1cc(F)c2nc(CN3CCC(Oc4ccnc(COc5ccc(C(F)F)cc5F)n4)CC3)n(C[C@@H]3CCO3)c2c1` [Compound 312, 2-({4-[(2-{[4-(difluoromethyl)-2-fluorophenoxy]methyl}pyrimidin-4-yl)oxy]piperidin;-1-yl}methyl)-1-{[(2S)-oxetan-2-yl]methyl}-1H-1,3-benzodiazole-6-carboxylic acid], with under 50 nM.

Turning to `N#Cc1ccc(OCc2nccc(OC3CCN(Cc4nc5c(F)cc(C(=O)O)cc5n4CC4(CF)CC4)CC3)n2)c(F)c1` [Compound 314], the EC50 was under 50 nM. To `O=C(O)c1cc(F)c2nc(CN3CCC(Oc4ccnc(COc5ccc(Cl)cc5F)n4)CC3)n(C[C@@H]3CCO3)c2c1` [Compound 315] belongs under 50 nM; to `CCn1cnnc1Cn1c(CN2CCC(Oc3ccnc(COc4ccc(Cl)cc4F)c3)CC2)nc2ccc(C(=O)O)cc21` [Compound 316], under 50 nM. Take `N#Cc1cc(F)ccc1OCc1cccc(OC2CCN(Cc3nc4c(F)cc(C(=O)O)cc4n3C[C@@H]3CCO3)CC2)c1` [Compound 317]: the EC50 is under 50 nM.

`C[C@H]1C[C@@H](Oc2cccc(COc3ccc(C#N)cc3F)c2)CCN1Cc1nc2ccc(C(=O)O)cc2n1C[C@@H]1CCO1` [Compound 319]: the EC50 is under 50 nM. On to `C[C@H]1C[C@@H](Oc2cccc(COc3ccc(C#N)cc3F)c2)CCN1Cc1nc2c(F)cc(C(=O)O)cc2n1C[C@@H]1CCO1` [Compound 320], for which the EC50 is under 50 nM. Then `O=C(O)c1ccc2nc(CN3CCC(Oc4ccnc(COc5ccc(Cl)cc5F)c4)CC3)n(CC3(CF)CC3)c2c1` [Compound 321], with under 50 nM. On to `O=C(O)c1ccc2nc(CN3CCC(Oc4ccnc(COc5ccc(F)cc5C(F)(F)F)c4)CC3)n(C[C@@H]3CCO3)c2c1` [Compound 322], for which the EC50 was under 50 nM.

Turning to `C[C@H]1C[C@@H](Oc2ccnc(COc3ccc(C#N)cc3F)n2)CCN1Cc1nc2c(F)cc(C(=O)O)cc2n1C[C@@H]1CCO1` [Compound 323], the EC50 was under 50 nM. As to `O=C(O)c1cc(F)c2nc(CN3CCC(Oc4ccnc(COc5ccc(Cl)cc5F)n4)CC3)n(CC3(CF)CC3)c2c1` [Compound 324], the EC50 was under 50 nM.

Turning to `N#CCC1(Cn2c(CN3CCC(Oc4ccnc(COc5ccc(F)cc5Cl)n4)CC3)nc3ccc(C(=O)O)cc32)CC1` [Compound 325], the EC50 was under 50 nM.
